Laboratory results reported in article PMC7830597, “Derivatives of Tenuazonic Acid as Potential New Multi-Target Anti-Alzheimer’s Disease Agents” (Biomolecules, 2021).
Marks after values point to notes of the source that are not given here.

What was measured:
Assay type in all cases: physicochemical
[1] = Metal complexation, Cu(II)/L system; conditions: for log β(CumHhLl): spectrophotometric, 15% w/w DMSO/water
Experimental: (§1) The chelating ability of compound 1 towards Fe(III), Cu(II) and Zn(II) was evaluated through the determination of the global formation constants of the complexes via pH-potentiometric and spectrophotometric titrations of the respective 1:1, 1:2 and 1:3 M/L systems in 15% w/w DMSO/water. The fitting analysis of the respective pH-potentiometric curves was done via Hyperquad 2008 [36] while that of the spectrophotometric absorption spectra was performed using Psequad, and the found equilibrium models are presented in Table 2. Compound 1 was chosen because of its better profile after preliminary assays (i.e., good AChE inhibition and antioxidant activity, as well as good ability to inhibit Cu^2+-induced Aβ aggregation).
(§2) To the best of our knowledge, the determination of stability formation constants of the complexes with TA has not yet been done and so the herein calculated values for compound 1 cannot be compared with those from the literature. The metal complexation equilibrium models of compound 1 were determined by the following process: for the Fe/L and Cu/L systems, only spectrophotometric data was used due to the better quality of the experimental results obtained [the 1:1 titration (e.g., Figure 7)] allowed the determination of the stability constant corresponding to the ML species and then this value, as well as the respective spectra, was introduced in the fitting of Fe/L 1:3 or Cu/L 1:2 data]; for the Zn/L system, potentiometric data was used. For the found metal complex models contained in Table 2, MH-2L, MH-1L2 and MH-2L2 correspond to mixed ligand-hydroxo metal complexes.
(§3) Titrations of the selected compound 1, alone or in the presence of the metal ions, were accomplished in a 15% w/w DMSO/H2O medium, at T = 25.0 ± 0.1 °C and ionic strength (I) 0.1 M KCl, by using 0.1 M KOH as titrant. Both glass and Ag/AgCl reference electrodes were previously conditioned in different DMSO/H2O mixtures of increasing DMSO % composition and the response of the glass electrode was evaluated by strong acid–strong base (HCl/KOH) calibrations with the determination of the Nernst parameters by Gran’s method. […] The spectrophotometric measurements were carried out in a 250–320 nm wavelength range at pH ca 2.5-8.0. Under the stated experimental conditions, the pKw value (13.6) was determined and subsequently used in the computations. The stepwise protonation constants of the ligands, Ki = [HiL]/[Hi-1L][H], and the overall metal–complex stability constants, β (MmHhL1) = [MmHhLl]/[M]^m[H]^h[L]^l, were calculated by fitting the pH-potentiometric and spectrophotometric data with, respectively, Hyperquad 2008 [36] and Psequad programs. The metal hydrolysis model was determined under the defined experimental conditions (I = 0.1 M KCl, 15% w/w DMSO/H2O, T = 25.0 ± 0.1 °C) and the following values of stability constants were included in the fitting of the experimental data towards the equilibrium models related to the Fe(III)/L, Cu(II)/L and Zn(II)/L systems: log β (FeH-1) = −1.79, log β (FeH-2) = −4.9, log β (FeH-4) = −20.0; log β (Cu2H-2) = −9.5; log β (ZnH-1) = −8.6, log β (ZnH-3) = −27.2, log β (Zn2H-1) = −8.6. The species distribution curves were obtained with the Hyss program.

[2] = Metal complexation, Zn(II)/L system; conditions: for log β(ZnmHhLl): potentiometric, 15% w/w DMSO/water
Experimental: as §1
as §2, with “For the found metal complex models contained in Table 2, MH-2L, MH-1L2 and MH-2L2 correspond to mixed ligand-hydroxo metal complexes.” left out
Titrations of the selected compound 1, alone or in the presence of the metal ions, were accomplished in a 15% w/w DMSO/H2O medium, at T = 25.0 ± 0.1 °C and ionic strength (I) 0.1 M KCl, by using 0.1 M KOH as titrant. Both glass and Ag/AgCl reference electrodes were previously conditioned in different DMSO/H2O mixtures of increasing DMSO % composition and the response of the glass electrode was evaluated by strong acid–strong base (HCl/KOH) calibrations with the determination of the Nernst parameters by Gran’s method. […]

[3] = Metal complexation, Fe(III)/L system; conditions: for log β(FemHhLl): spectrophotometric, 15% w/w DMSO/water
Experimental: as §1, §2, §3

[4] = pH 7.4, CL/CM = 10, CM = 10^−6 M

For `CCOC(=O)C1=C(O)C(C(C)C)NC1=O` (stereo not shown) [Compound 1, Ethyl 4-hydroxy-5-isopropyl-2-oxo-2,5-dihydro-1H-pyrrole-3-carboxylate], the Kd ([1]; calculated at pH 7.4, read-out: conditional dissociation constant (K’d) for the copper complex) was 83 µM, the “pCu (pM = −log[M])” value [1, 4] was 11.6 and the “log β(CumHhLl)” value ([1]; species (1-12)) was 6.56(6) ^d. The “log β(CumHhLl)” value ([1]; species (1-21)) was −4.15(7) ^d, the “log β(CumHhLl)” value ([1]; species (101)) was 4.08(8) ^d and the “pZn (pM = −log[M])” value [2, 4] was 6.0. For the same compound, the “log β(ZnmHhLl)” value ([2]; species (1-21)) was −11.75(5) ^c, the “log β(ZnmHhLl)” value ([2]; species (101)) was 3.16(8) ^c and the “pFe (pM = −log[M])” value [3, 4] was 16.6. For the same compound, the “log β(FemHhLl)” value ([3]; species (1-22)) was 5.83(8) ^d, the “log β(FemHhLl)” value ([3]; species (101)) was 9.46(7) ^d and the “log β(FemHhLl)” value ([3]; species (102)) was 14.30(7) ^d. The “log β(FemHhLl)” value ([3]; species (103)) was 19.4(1) ^d.
